This is an account of results in patent EP1599478B1, “DIHYDROPTERIDINONES, METHOD FOR THE PRODUCTION AND USE THEREOF IN THE FORM OF DRUGS” (Boehringer Ingelheim Pharma GmbH & Co.KG, priority 2003, dated 2004).

Molecules are shown by their SMILES. pIC50: −log10 of the molar value.

In the first test the test system is HeLaS3 Zellen. The test can be described thus: Cytotoxicity test on cultured human tumour cells (AlamarBlue). The note with it: HeLa S3, 72 h, read-out: HELA. The class given is cell-based. An excerpt: Die Wirkung der erfindungsgemäBen Verbindungen wurde im Cytotoxizitätstest an kultivierten humanen Tumorzellen und/oder in einer FACS-Analyse, beispielsweise an HeLaS3-Zellen, bestimmt.
Messung der Cytotoxizität an kultivierten humanen Tumorzellen
Zur Messung der Cytotoxizität an kultivierten humanen Tumorzellen wurden Zellen der zervikalen Carcinoma Tumorzell-Linie HeLaS3 (erhalten von American Type Culture Collection (ATCC)) in Ham's F12 Medium (Life Technologies) und 10% fötalem Rinderserum (Life Technologies) kultiviert und in der log-Wachstumsphase geerntet. Anschließend wurden die HeLaS3 Zellen in 96-well Platten (Costar) mit einer Dichte von 1000 Zellen pro well eingebracht und über Nacht in einem Inkubator (bei 37°C und 5 % CO2) inkubiert, wobei auf jeder Platte 6 wells nur mit Medium gefüllt wurden (3 wells zur Mediumkontrolle, 3 wells zur Inkubation mit reduzierten AlamarBlue). Die Wirksubstanzen wurden in verschiedenen Konzentrationen (gelöst in DMSO; Endkonzentration: 1%) zu den Zellen zugegeben (jeweils als Dreifachbestimmung) Nach 72 Stunden Inkubation wurden zu jeden well 20 µl AlamarBlue (AccuMed International) zugesetzt, und die Zellen für weitere 7 Stunden inkubiert. Zur Kontrolle wurde zu 3 wells je 20 µl reduziertes Alamar Blue gegeben (AlamarBlue Reagenz, das für 30 min autoklaviert wurde). Nach 7 h Inkubation wurde der Farbumsatz des AlamarBlue Reagenz in den einzelnen wells in einem Perkin Elmer Fluoreszenspektrophotometer bestimmt (Exitation 530 nm, Emission 590 nm, Slits 15, Integrate time 0.1). Die Menge an umgesetzten AlamarBlue Reagenz repräsentiert die metabolische Aktivität der Zellen. Die relative Zellaktivität wurde in Prozent der Kontrolle (HeLa S3 Zellen ohne Inhibitor) berechnet und die Wirkstoffkonzentration, die die Zellaktivität zu 50% hemmt (IC^50) abgeleitet. Die Werte wurden hierbei aus dem Mittelwert von drei Einzelbestimmungen - unter Korrektur des Leerwertes (Mediumkantrolle)- berechnet.
Take `CC[C@@H]1C(=O)N(C)c2cnc(Nc3ccc(C(=O)NC4CCN(C)CC4)cc3OC)nc2N1C1CCCC1` [compound 46]: the pIC50 is 7.92.

Staying with this test, now noted: HeLa S3, HeLa cells, unit inferred, read-out: HELA.
Turning to `COc1cccc(N2c3nc(Nc4ccc(C(=O)NC5CCN(C)CC5)cc4OC)ncc3N(C)C(=O)[C@H]2C)c1` [compound 224], the pIC50 is 5.98.

Consider `COc1cccc(N2c3nc(Nc4ccc(C(=O)NC5CCN(C)CC5)cc4)ncc3N(C)C(=O)[C@H]2C)c1` [compound 225], for which the pIC50 is 5.93.

`COc1cc(C(=O)NC2CCN(C)CC2)ccc1Nc1ncc2c(n1)N(c1ccccc1OC)[C@H](C)C(=O)N2C` [compound 226]: the pIC50 was 6.53.

With `COc1cc(C(=O)NC(C)(C)CN2CCCC2)ccc1Nc1ncc2c(n1)N(c1ccccc1OC)[C@H](C)C(=O)N2C` [compound 227], the pIC50 is 6.07.

As for `COc1cc(C(=O)NC2CCNCC2)ccc1Nc1ncc2c(n1)N(C1CCCC1)[C@H](C)C(=O)N2C` [compound 238], the pIC50 was 7.82.

As for `CC[C@@H]1C(=O)N(C)c2cnc(Nc3ccc(C(=O)NC(C)(C)CN4CCOCC4)cc3OC)nc2N1C1CCCC1` [compound 239], the pIC50 was 7.29.

With `COc1cc(C(=O)NC(C)(C)CN(C)C)ccc1Nc1ncc2c(n1)N(C1CCCCC1)[C@H](C)C(=O)N2C` [compound 240], the pIC50 was 7.77.

As to `CC[C@@H]1C(=O)N(C)c2cnc(Nc3ccc(C(=O)NC(C)(C)CN4CCN(C)CC4)cc3OC)nc2N1CCC(C)C` [compound 241], the pIC50 was 7.36.
